# Laboratory results taken from BindingDB's records for PubMed 35080403 (Yunnan University of Chinese Medicine, 2022).
# Biological target: Maltase-glucoamylase (Homo sapiens, UniProt O43451)
# Assay: Inhibition of Alpha-glucosidase (unknown origin)
# Chain of Maltase-glucoamylase (O43451 whole entry): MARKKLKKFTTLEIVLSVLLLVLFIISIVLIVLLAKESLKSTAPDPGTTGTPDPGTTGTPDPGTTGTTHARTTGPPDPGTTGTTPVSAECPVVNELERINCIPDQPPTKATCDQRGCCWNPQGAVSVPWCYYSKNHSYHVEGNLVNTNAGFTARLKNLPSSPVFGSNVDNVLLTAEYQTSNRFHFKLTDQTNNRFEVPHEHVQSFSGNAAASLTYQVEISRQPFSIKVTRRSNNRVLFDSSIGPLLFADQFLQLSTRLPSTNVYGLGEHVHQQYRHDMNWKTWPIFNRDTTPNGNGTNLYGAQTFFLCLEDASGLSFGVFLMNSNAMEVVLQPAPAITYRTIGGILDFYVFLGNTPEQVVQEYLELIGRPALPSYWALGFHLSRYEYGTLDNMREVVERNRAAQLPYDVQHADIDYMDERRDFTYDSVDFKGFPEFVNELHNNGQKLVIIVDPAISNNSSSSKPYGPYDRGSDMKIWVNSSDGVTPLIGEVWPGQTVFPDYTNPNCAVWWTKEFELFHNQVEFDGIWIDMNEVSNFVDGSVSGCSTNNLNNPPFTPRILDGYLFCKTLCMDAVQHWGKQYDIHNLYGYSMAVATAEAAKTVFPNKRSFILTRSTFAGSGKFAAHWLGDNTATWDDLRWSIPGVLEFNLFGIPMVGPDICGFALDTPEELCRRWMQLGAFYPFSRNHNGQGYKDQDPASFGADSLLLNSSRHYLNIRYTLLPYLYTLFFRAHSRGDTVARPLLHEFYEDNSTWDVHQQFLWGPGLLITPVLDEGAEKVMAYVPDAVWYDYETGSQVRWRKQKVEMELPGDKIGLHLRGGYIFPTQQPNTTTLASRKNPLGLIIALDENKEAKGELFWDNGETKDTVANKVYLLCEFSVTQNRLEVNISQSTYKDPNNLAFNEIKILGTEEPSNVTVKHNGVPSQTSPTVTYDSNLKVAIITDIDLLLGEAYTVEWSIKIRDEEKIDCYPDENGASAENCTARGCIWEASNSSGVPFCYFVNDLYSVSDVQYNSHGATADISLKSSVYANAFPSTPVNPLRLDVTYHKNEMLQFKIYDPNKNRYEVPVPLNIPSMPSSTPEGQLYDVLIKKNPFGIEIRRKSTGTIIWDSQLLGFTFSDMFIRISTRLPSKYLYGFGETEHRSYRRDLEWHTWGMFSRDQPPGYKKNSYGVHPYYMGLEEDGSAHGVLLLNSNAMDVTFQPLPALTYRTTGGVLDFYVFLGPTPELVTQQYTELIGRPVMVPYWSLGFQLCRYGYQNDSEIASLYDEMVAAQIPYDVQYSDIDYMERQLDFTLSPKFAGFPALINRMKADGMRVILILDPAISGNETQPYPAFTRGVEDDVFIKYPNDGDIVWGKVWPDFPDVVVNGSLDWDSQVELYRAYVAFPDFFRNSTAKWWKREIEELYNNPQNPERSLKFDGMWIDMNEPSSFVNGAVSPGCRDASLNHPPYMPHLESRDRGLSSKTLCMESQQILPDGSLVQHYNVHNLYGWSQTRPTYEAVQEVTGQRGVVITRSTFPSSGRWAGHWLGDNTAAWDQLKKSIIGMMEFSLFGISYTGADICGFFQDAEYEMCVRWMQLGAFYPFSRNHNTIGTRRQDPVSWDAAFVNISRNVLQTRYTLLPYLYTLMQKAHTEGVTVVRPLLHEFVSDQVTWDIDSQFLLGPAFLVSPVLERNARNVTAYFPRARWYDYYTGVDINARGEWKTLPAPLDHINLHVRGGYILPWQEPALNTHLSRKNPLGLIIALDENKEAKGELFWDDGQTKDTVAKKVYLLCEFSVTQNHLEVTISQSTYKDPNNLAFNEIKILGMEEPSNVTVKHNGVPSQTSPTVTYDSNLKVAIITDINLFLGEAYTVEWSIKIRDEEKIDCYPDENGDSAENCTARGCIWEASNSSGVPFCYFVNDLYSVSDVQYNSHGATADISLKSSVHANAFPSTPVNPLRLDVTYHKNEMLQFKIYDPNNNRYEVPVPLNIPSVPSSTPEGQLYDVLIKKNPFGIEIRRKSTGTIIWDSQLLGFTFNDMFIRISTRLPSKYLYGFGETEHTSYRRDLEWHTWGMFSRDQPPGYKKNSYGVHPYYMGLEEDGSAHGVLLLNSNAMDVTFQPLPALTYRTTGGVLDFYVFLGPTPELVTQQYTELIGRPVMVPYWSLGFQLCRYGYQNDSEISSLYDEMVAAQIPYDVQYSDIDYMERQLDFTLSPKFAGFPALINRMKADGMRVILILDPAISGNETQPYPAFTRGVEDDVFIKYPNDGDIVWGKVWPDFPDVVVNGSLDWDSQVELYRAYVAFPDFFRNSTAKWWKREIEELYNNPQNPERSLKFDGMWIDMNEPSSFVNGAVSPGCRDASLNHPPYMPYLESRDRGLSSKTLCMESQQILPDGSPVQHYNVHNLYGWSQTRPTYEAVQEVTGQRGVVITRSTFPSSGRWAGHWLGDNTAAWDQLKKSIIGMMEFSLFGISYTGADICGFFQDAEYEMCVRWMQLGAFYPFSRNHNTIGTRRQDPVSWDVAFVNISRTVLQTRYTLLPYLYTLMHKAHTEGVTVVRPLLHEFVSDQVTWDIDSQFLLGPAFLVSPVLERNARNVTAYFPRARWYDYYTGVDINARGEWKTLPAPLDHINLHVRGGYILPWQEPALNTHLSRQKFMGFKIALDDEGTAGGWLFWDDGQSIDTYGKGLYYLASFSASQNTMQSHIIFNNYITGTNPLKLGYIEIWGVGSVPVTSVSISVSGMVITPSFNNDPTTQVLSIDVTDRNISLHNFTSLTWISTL
structure (smiles),measurement,value
CC/C=C\C/C=C\CCC(=O)O[C@@]12[C@H](OC(=O)[C@@H](C)CC)[C@@H](C)[C@@]3(O)[C@@H](C(=O)C(CO)=C[C@]4(O)C(=O)C(C)=C[C@@H]34)[C@@H]1C2(C)C,IC50,15.3 µM
